In patent US20110130432A1, “Heterocyclic Carboxamides For Use As Thrombin Inhibitors” (ASTRAZENECA AB, priority 2008, published 2011):

Biological target: T1, Human α-thrombin (Homo sapiens, UniProt P00734)
T1 construct: Human α-thrombin; purchased Sigma Chemical Co. or Hematologic Technologies
Assay: Test A: Determination of Thrombin Inhibition with a Chromogenic, Robotic Assay
Type: biochemical
Conditions: chromogenic substrate S-2366 0.30 mmol/L, α-thrombin 0.020 NIHU/mL, 40 minutes incubation at 37° C.
Method: Determination of Thrombin Inhibition with a Chromogenic, Robotic Assay
The thrombin inhibitor potency is measured with a chromogenic substrate method, in a Plato 3300 robotic microplate processor (Rosys AG, CH-8634 Hombrechtikon, Switzerland), using 96-well, half volume microtitre plates (Costar, Cambridge, Mass., USA; Cat No 3690). Stock solutions of test substance in DMSO (72 μL), 0.1-1 mmol/L, are diluted serially 1:3 (24+48 μL) with DMSO to obtain ten different concentrations, which are analyzed as samples in the assay. 2 μL of test sample is diluted with 124 μL assay buffer, 12 μL of chromogenic substrate solution (S-2366, Chromogenix, Mölndal, Sweden) in assay buffer and finally 12 μL of α-thrombin solution (Human α-thrombin, Sigma Chemical Co. or Hematologic Technologies) in assay buffer, are added, and the samples mixed. The final assay concentrations are: test substance […], S-2366 0.30 mmol/L, α-thrombin 0.020 NIHU/mL The linear absorbance increment during 40 minutes incubation at 37° C. is used for calculation of percentage inhibition for the test samples, as compared to blanks without inhibitor. The IC50 value, corresponding to the inhibitor concentration which causes 50% inhibition of the thrombin activity, is calculated from a log concentration vs. % inhibition curve.

Compound | IC50 [nM]
CC(C)(C)OC[C@@H](O)C(=O)N1OCC[C@H]1C(=O)NCc1cc(Cl)ccc1-n1cnnn1 [Example 40, (3S)-2-[(2R)-3-tert-Butoxy-2-hydroxypropanoyl]-N-[5-chloro-2-(1H-tetrazol-1-yl)benzyl]isoxazolidine-3-carboxamide] | 44
CC1(C[C@@H](O)C(=O)N2OCC[C@H]2C(=O)NCc2cc(Cl)ccc2-n2cnnn2)CC1 [Example 43, (3S)—N-[5-Chloro-2-(1H-tetrazol-1-yl)benzyl]-2-[(2R)-2-hydroxy-3-(1-methylcyclopropyl)propanoyl]isoxazolidine-3-carboxamide] | 68
O=C(NCc1cc(Cl)ccc1-n1cnnn1)[C@@H]1CCON1C(=O)[C@H](O)Cc1ccccc1 [Example 47, (3S)—N-[5-Chloro-2-(1H-tetrazol-1-yl)benzyl]-2-[(2R)-2-hydroxy-3-phenylpropanoyl]isoxazolidine-3-carboxamide] | 80
N#Cc1cccc(C(O)C(=O)N2OCC[C@H]2C(=O)NCc2cc(Cl)ccc2-n2cnnn2)c1 (stereo partly drawn) [Example 48, (3S)—N-[5-Chloro-2-(1H-tetrazol-1-yl)benzyl]-2-[(3-cyanophenyl)(hydroxy)acetyl]isoxazolidine-3-carboxamide] | 92
O=C(NCc1cc(Cl)ccc1-n1cnnn1)[C@@H]1CCNN1C(=O)C(O)c1ccccc1F (stereo partly drawn) [Example 50, (3S)—N-[5-Chloro-2-(1H-tetrazol-1-yl)benzyl]-2-[(2-fluorophenyl)(hydroxy)acetyl]pyrazolidine-3-carboxamide] | 79
O=C(NCc1cc(Cl)ccc1-n1cnnn1)[C@@H]1CCNN1C(=O)C(O)c1ccc(F)cc1F (stereo partly drawn) [Example 51, (3S)—N-[5-Chloro-2-(1H-tetrazol-1-yl)benzyl]-2-[(2,4-difluorophenyl)(hydroxy)acetyl]pyrazolidine-3-carboxamide] | 63
O=C(NCc1cc(Cl)ccc1-n1cnnn1)[C@@H]1CCNN1C(=O)C1(O)CCOc2ccccc21 (stereo partly drawn) [Example 53, (3S)—N-[5-Chloro-2-(1H-tetrazol-1-yl)benzyl]-2-[(4-hydroxy-3,4-dihydro-2H-chromen-4-yl)carbonyl]pyrazolidine-3-carboxamide] | 240
O=C(NCc1cc(Cl)ccc1-n1cnnn1)[C@@H]1CCNN1C(=O)[C@H](O)Cc1ccccc1 [Example 56, (3S)—N-[5-Chloro-2-(1H-tetrazol-1-yl)benzyl]-2-[(2R)-2-hydroxy-3-phenylpropanoyl]pyrazolidine-3-carboxamide] | 79

Now those with a lower IC50, led by results:

IC50 [nM] | Compound
41 | O=C(NCc1cc(Cl)ccc1-n1cnnn1)[C@@H]1CCON1C(=O)[C@H](O)C1CCCC1 [Example 41, (3S)—N-[5-Chloro-2-(1H-tetrazol-1-yl)benzyl]-2-[(2R)-2-cyclopentyl-2-hydroxyacetyl]isoxazolidine-3-carboxamide]
21 | O=C(NCc1cc(Cl)ccc1-n1cnnn1)[C@@H]1CCON1C(=O)[C@H](O)C1CCCCC1 [Example 42, (3S)—N-[5-Chloro-2-(1H-tetrazol-1-yl)benzyl]-2-[(2R)-2-cyclohexyl-2-hydroxyacetyl]isoxazolidine-3-carboxamide]
8.4 | O=C(NCc1cc(Cl)ccc1-n1cnnn1)[C@@H]1CCNN1C(=O)[C@H](O)c1ccc(F)cc1 [Example 52, (3S)—N-[5-Chloro-2-(1H-tetrazol-1-yl)benzyl]-2-[(2R)-2-(4-fluorophenyl)-2-hydroxyacetyl]pyrazolidine-3-carboxamide]
8.4 | O=C(NCc1cc(Cl)ccc1-n1cnnn1)[C@@H]1CCNN1C(=O)[C@H](O)C1CCCCC1 [Example 55, (3S)—N-[5-Chloro-2-(1H-tetrazol-1-yl)benzyl]-2-[(2R)-2-cyclohexyl-2-hydroxyacetyl]pyrazolidine-3-carboxamide]
